The data set can be described thus: Test of influencing factors of crystalline forms A, B and C (total impurity). The class given is physicochemical. Conditions: methanesulfonate. An excerpt:
Example 3 Test of Influencing Factors of Crystalline Forms A, B and C

For the compound `COc1cc2nccc(Oc3ccc4c(c3)CCCN4C(=O)Nc3cccc(F)c3)c2cc1OC` [Crystalline form B, N-(3-fluorophenyl)-6-(6,7-dimethoxyquinolin-4-oxy)-3,4-dihydroquinoline-1(2H)-carboxamide methanesulfonate], the Total impurity % (High humidity (RH75%), 0 day) turned out to be 0.86%; the Total impurity % (High humidity (RH75%), 5 days) came to 1.03%; the Total impurity % (High humidity (RH75%), 10 days) was 1.09%; the Total impurity % (High humidity (RH75%), 30 days) was found to be 1.12%; the Total impurity % (High temperature (60° C.), 0 day) was 0.86%; the Total impurity % (High temperature (60° C.), 5 days) stood at 1.00%. The Total impurity % is, setting by setting: (High temperature (60° C.), 10 days) 0.98%; (Illumination (5000 + 500 lux), 0 day) 0.86%; (Illumination (5000 + 500 lux), 5 days) 0.94%; (Illumination (5000 + 500 lux), 10 days) 1.12%; (Illumination (5000 + 500 lux), 30 days) 1.33%.

(Values after patent US20250361209A1, “CRYSTAL FORMS OF N-(3-FLUOROPHENYL)-6-(6,7-DIMETHOXYQUINOLIN-4-OXY)-3,4-DIHYDROQUINOLINE-1(2H)-CARBOXAMIDE METHANESULFONATE AND PREPARATION METHOD THEREOF” (Shanghai Yi Feng Biotechnology Co., Ltd., priority 2023, published 2025).)
